Each block holds one molecule with its values, some of them ahead of it. Square brackets hold non-standard residues; d marks the D form. Peptide text beside a SMILES is read from it. * marks the point of attachment. Benzoyl(4-tBu) = CC(C)(C)c1ccc(C(=O)*)cc1; Lys(Me3) = C[N+](C)(C)CCCC[C@H](N)C(=O)O; Lys(Et2) = CCN(CC)CCCC[C@H](N)C(=O)O
Legend:
[1] = molecular target: T1, Chromobox protein homolog 7 (Homo sapiens, UniProt O95931); test: Inhibition of N terminally fluorescein-tagged H3K27me3 binding to N terminallyHis6-tagged human Cbx7 expressed in Escherichia coli BL21 (DE3) by fluorescence polarization assay
T1 sequence (O95931 whole entry): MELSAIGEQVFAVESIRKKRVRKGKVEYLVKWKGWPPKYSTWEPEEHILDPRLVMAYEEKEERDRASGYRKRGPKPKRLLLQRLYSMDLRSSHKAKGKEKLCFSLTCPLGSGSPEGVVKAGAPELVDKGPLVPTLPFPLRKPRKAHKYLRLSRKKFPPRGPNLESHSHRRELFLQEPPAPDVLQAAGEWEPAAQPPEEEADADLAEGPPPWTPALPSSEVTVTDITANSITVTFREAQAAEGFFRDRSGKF

[2] = system: PC-3; test: Antiproliferative activity against human PC3 cells after 3 days by DAPI staining-based microscopic analysis; assay type: functional; settings: PC-3, 72 h
[3] = molecular target: T2, Lethal(3)malignant brain tumor-like protein 1 (Homo sapiens, UniProt Q9Y468); test: Inhibition of L3MBTL1 (unknown origin) by AlphaScreen assay
T2 sequence (Q9Y468 whole entry): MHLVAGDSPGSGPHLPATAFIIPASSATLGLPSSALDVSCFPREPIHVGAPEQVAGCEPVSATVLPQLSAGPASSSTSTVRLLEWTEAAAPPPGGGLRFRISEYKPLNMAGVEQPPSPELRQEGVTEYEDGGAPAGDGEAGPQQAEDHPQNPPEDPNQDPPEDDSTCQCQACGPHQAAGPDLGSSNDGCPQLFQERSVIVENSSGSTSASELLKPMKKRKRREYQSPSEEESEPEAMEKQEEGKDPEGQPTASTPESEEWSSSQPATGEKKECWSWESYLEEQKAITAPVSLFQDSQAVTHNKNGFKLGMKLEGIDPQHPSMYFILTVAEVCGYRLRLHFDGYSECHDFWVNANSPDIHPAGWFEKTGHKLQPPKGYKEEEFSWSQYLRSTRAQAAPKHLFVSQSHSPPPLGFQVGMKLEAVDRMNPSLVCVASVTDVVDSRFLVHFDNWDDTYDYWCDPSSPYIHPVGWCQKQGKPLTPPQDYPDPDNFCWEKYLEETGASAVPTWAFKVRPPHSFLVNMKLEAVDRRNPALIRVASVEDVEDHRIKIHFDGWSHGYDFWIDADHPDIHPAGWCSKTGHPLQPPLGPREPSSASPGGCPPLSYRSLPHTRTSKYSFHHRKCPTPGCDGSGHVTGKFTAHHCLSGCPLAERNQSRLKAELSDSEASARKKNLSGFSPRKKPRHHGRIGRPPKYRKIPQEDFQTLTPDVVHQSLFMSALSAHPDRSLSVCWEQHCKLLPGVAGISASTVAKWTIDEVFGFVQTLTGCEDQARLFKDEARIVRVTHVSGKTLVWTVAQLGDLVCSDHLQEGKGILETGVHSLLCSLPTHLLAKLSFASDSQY

[4] = molecular target: T3, Lysine-specific demethylase 5A (Homo sapiens, UniProt P29375); test: Inhibition of JARID1A (unknown origin)
[5] = molecular target: Histone-lysine N-methyltransferase 2A (Homo sapiens, UniProt Q03164); test: Binding affinity to 15N-labeled GST-tagged MLL1 PHD3 finger domain (1565 to 1627 residues) (unknown origin) expressed in Escherichia coli Rosetta2 BL21(DE3) pLysS cells by NMR Spectroscopy method
[6] = molecular target: T1, Chromobox protein homolog 7; test: Inhibition of Cbx7 (unknown origin) using FITC-labeled SETDB1-K1170me3 peptide as probe by fluorescence polarization assay
[7] = molecular target: T3, Lysine-specific demethylase 5A; test: Inhibition of recombinant HQ5-Halo-tagged JARID1A PHD3 finger domain (unknown origin) expressed in BL21(DE3)pLysS cells after 1 hr by chemiluminescent assay; assay type: cell-based
[8] = molecular target: Polycomb protein EED (Homo sapiens, UniProt O75530); test: Binding affinity to full length N-terminal His-tagged EED (unknown origin) expressed in Rosetta2 BL21(DE3)pLysS cells by ITC method
[9] = molecular target: T4, Chromodomain Y-like protein (Homo sapiens, UniProt Q9Y232); test: Binding affinity to N-terminal GST-tagged CDYL (1 to 78 residues) (unknown origin) expressed in Rosetta2 BL21(DE3)pLysS cells after 30 mins by fluorescence polarization assay
T4 sequence (Q9Y232 whole entry): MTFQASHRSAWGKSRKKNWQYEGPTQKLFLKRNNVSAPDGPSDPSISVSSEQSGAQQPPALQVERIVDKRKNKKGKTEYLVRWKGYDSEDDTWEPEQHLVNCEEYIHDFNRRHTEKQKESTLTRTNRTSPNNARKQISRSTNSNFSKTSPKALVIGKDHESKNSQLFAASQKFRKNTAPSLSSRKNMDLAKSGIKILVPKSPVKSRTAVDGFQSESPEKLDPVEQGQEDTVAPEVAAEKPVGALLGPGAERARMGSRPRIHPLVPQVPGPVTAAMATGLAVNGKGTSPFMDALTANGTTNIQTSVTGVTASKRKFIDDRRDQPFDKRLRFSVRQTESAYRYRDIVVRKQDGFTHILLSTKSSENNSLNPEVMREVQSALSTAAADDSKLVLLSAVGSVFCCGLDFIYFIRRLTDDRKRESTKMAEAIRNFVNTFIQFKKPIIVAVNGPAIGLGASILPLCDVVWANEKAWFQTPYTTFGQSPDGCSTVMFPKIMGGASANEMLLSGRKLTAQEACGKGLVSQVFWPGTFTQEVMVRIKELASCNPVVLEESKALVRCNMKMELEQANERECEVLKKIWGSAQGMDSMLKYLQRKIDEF

[10] = molecular target: T5, Chromodomain Y-like protein 2 (Homo sapiens, UniProt Q8N8U2); test: Binding affinity to C-terminal His-tagged CDYL2 (1 to 75 residues) (unknown origin) expressed in Rosetta2 BL21(DE3)pLysS cells by ITC method
T5 sequence (Q8N8U2 whole entry): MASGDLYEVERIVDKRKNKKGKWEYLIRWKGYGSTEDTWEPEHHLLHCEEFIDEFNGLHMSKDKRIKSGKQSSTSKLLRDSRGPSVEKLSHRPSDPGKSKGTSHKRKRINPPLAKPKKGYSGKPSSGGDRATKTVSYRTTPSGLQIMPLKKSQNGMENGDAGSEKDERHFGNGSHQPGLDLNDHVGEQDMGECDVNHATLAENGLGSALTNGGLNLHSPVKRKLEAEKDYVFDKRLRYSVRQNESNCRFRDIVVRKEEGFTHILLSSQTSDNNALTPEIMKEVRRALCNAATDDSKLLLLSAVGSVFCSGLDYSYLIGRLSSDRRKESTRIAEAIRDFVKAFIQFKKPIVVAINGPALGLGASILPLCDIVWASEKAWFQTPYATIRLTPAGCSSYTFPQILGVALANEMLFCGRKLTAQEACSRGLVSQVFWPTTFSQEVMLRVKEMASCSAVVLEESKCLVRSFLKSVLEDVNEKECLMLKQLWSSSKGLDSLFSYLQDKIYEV

[11] = molecular target: T1, Chromobox protein homolog 7; test: Binding affinity to Cbx7 (unknown origin)
[12] = molecular target: T3, Lysine-specific demethylase 5A; test: Inhibition of JARID1A PHD finger domain (unknown origin)

T3 sequence (P29375 whole entry, the tested form may be a part): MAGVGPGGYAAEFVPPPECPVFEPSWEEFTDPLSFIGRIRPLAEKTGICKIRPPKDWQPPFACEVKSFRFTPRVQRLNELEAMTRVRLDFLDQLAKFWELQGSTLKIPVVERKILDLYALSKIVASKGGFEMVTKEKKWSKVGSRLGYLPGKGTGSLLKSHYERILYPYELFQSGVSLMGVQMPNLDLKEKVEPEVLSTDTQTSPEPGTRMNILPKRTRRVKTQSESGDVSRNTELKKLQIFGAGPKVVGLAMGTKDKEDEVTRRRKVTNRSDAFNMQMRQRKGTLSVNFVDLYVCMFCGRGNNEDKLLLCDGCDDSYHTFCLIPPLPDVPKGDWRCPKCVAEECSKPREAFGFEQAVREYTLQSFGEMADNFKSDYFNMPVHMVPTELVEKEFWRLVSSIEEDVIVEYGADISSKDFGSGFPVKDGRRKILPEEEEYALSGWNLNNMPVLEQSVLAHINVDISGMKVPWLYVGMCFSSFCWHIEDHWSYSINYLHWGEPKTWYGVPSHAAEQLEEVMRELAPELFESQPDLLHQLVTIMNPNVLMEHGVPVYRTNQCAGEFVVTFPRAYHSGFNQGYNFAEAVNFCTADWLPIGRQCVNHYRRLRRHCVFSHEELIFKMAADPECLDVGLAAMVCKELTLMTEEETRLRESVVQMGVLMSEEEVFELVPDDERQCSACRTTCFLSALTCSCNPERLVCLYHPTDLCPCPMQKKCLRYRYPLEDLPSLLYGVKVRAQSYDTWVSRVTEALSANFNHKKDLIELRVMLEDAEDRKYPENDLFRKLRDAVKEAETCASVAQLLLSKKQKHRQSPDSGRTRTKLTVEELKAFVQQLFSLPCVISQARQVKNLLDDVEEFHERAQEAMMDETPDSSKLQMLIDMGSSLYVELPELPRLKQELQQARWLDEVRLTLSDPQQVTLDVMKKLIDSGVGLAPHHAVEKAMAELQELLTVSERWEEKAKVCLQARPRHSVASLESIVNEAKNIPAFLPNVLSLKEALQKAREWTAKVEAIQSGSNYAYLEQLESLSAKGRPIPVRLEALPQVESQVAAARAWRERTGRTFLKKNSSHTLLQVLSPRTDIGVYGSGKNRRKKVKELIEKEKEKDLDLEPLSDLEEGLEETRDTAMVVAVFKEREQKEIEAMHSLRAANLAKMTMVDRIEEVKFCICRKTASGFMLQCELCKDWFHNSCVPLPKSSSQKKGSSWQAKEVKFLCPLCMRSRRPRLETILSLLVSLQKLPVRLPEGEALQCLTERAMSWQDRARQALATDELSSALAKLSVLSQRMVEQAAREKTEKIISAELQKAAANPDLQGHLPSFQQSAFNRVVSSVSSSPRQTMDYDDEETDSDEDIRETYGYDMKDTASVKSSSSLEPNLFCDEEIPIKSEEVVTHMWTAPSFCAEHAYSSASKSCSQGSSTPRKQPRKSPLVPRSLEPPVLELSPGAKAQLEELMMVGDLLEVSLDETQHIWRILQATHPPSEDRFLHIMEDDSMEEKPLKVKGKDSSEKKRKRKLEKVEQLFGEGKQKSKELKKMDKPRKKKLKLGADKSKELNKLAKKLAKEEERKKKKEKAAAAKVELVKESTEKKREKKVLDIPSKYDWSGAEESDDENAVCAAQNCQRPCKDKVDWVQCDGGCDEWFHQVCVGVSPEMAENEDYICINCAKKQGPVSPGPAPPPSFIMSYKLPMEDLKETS
Sequence of Polycomb protein EED (O75530 whole entry, the tested form may be a part): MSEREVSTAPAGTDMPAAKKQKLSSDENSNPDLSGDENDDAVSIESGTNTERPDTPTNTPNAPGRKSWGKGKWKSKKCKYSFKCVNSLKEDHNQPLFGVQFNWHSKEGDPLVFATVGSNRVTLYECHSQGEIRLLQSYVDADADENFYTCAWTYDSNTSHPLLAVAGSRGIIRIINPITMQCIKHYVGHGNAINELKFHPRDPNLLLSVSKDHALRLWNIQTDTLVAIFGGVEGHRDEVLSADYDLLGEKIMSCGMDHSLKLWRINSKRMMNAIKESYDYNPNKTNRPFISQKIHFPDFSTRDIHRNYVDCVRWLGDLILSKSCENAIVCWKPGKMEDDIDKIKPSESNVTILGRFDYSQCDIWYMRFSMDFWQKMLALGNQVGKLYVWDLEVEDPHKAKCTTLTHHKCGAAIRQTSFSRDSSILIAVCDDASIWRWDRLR

Structure (SMILES): NC(=O)c1cc[n+](CC2=C(C(=O)O)N3C(=O)[C@@H](NC(=O)[C@@H](c4ccccc4)S(=O)(=O)[O-])[C@H]3SC2)cc1 [CEFSULODIN]
IC50 [3]: 98 nM

Structure (SMILES): C[C@H](NC(=O)[C@H](CCCCN)NC(=O)CNC(=O)CNC(=O)[C@@H](NC(=O)[C@H](CO)NC(=O)[C@H](CCCCN)NC(=O)[C@H](CCCNC(=N)N)NC(=O)[C@H](C)NC(=O)[C@@H](NC(=O)[C@H](CCC(N)=O)NC(=O)[C@H](CCCC[N+](C)(C)C)NC(=O)[C@@H](NC(=O)[C@H](CCCNC(=N)N)NC(=O)[C@H](C)NC(=S)Nc1ccc(C2=C3C=CC(O)=CC3Oc3cc(O)ccc32)c(C(=O)O)c1)[C@@H](C)O)[C@@H](C)O)[C@@H](C)O)C(=O)O (stereo partly drawn)
Kd [4]: 800 to 900 nM
Kd [5]: 20 µM

Structure (SMILES): Cc1ccc(C(=O)Nc2ccc(S(=O)(=O)O)c3cc(S(=O)(=O)O)cc(S(=O)(=O)O)c23)cc1NC(=O)c1cccc(NC(=O)Nc2cccc(C(=O)Nc3cc(C(=O)Nc4ccc(S(=O)(=O)O)c5cc(S(=O)(=O)O)cc(S(=O)(=O)O)c45)ccc3C)c2)c1 [SURAMIN]
IC50 [6]: 8.1 µM

Structure (SMILES): CCCCc1oc2ccccc2c1C(=O)c1cc(I)c(OCC[N+](C)(C)C)c(I)c1
IC50 [7]: 26 to 41 µM

Structure (SMILES): CC(C)C[C@H](NC(=O)[C@@H](N)CCCNC(=N)N)C(=O)N[C@@H](CCC(N)=O)C(=O)N[C@@H](C)C(=O)N[C@@H](CCC(N)=O)C(=O)N[C@@H](CCCNC(=N)N)C(=O)N[C@@H](CCCC[N+](C)(C)C)C(=O)N[C@@H](Cc1ccccc1)C(=O)N[C@@H](C)C(=O)N[C@@H](CCC(N)=O)C(=O)N[C@@H](CO)C(=O)N[C@@H](CCC(N)=O)C(=O)N[C@@H](Cc1ccc(O)cc1)C(=O)O
Kd [8]: 3 µM

Structure (SMILES): COc1cccc(C(=O)N2CCN(C(=O)COc3cccc(C)c3)CC2)c1OC
IC50 [6]: 67 µM
Kd [11]: 29 µM

Structure (SMILES): CCN(CC)C(=S)SSC(=S)N(CC)CC
IC50 [12]: 10 µM

The remaining lines, values ahead:

IC50 [1]: 12 µM
Structure (SMILES): CC(=O)N[C@@H](Cc1ccccc1)C(=O)N[C@@H](C)C(=O)N[C@@H](CC(C)C)C(=O)N[C@@H](CCCC[N+](C)(C)C)C(=O)N[C@@H](CO)C(N)=O (Ac-FAL[Lys(Me3)]S-NH2)

GI50 [2]: 7.6 µM
Structure (SMILES): CCN(CC)CCCC[C@H](NC(=O)[C@H](CC(C)C)NC(=O)[C@H](C)NC(=O)[C@H](Cc1ccccc1)NC(=O)c1ccc(C(C)(C)C)cc1)C(=O)N[C@@H](CO)C(=O)OC ({Benzoyl(4-tBu)}-FAL[Lys(Et2)]S-OMe)

Kd [9]: 490 nM
Kd [10]: 640 nM
Structure (SMILES): CCN(CCCC[C@H](NC(=O)[C@H](Cc1ccccc1)NC(=O)[C@H](C)NC(=O)[C@H](Cc1ccccc1)NC(=O)C1CCCCC1)C(=O)N[C@H](C(N)=O)[C@H](C)O)C(C)C
